Columns and labels:
[1] = target: galectin CRD; parameters: method as in not given; conditions: endogenous ligand binding the galectin CRD; literature value, ref not given; cited from earlier work
[2] = target: T1, Gal-3C (Homo sapiens, UniProt P17931); test: Direct binding fluorescence polarization of the fluorescent probe, Gal-3C; conditions: [probe] 5 nM, mean ± SD
T1 construct: only the C-terminal domain was used (Gal-3C); 6xHis tag with TEV protease site (N, cleaved yes); made in house; host or cells: BL21 Escherichia coli (pET-15b)
Procedure: (§1) Fluorescence polarization measurements were performed at 25 °C using a Tecan Spark multiplate reader (Tecan, Switzerland) with excitation at 485 ± 20 nm and emission at 535 ± 20 nm in a 384-well black polystyrene microplate (Corning 4514, USA). Dissociation constants of the probe (K d ^*) were determined by fitting the binding data with a quadratic model for direct binding using the BindCurve package. Additional details on the model, probe concentrations, and fitting parameters are provided in the Supporting Information.
(§2) Fluorescence polarization
(§3) Direct binding was modeled by a quadratic model, which is written as […]
(§4) where r corresponds to the measured anisotropy, rmin corresponds to the anisotropy of the free probe (labeled ligand), and rmax corresponds to maximal anisotropy, which is achieved when all molecules of the probe are bound to the receptor. Kd∗ is the dissociation constant of the probe and [R] is the concentration of free receptor. [R] is determined by a quadratic equation […]
(§5) where [L∗]T is the total concentration of the probe and [R]T is the total concentration of the receptor. Using quadratic formula, the positive root is calculated as […]
(§6) Table S1. Calculated Kd∗ values, total concentrations of the fluorescent probe, and model asymptotes from direct binding experiments. […]
(§7) a K∗ values are expressed as mean ± SD from two independent experiments, each performed […]

[3] = target: Gal-1; test: Direct binding fluorescence polarization of the fluorescent probe, Gal-1; parameters: species or system human; conditions: [probe] 100 nM, mean ± SD
Procedure: as §1, §2, §3, §4, §5, §6, §7

T1 sequence (P17931 118-248 limits assumed): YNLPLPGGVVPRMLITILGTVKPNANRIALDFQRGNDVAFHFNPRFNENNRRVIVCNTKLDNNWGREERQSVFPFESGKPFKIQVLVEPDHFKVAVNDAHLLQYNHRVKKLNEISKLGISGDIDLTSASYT

Row | Kd [2] [nM] | Kd [3] [nM] | Structure (SMILES) | Kd [1] [nM]
1 | – | – | CC(=O)N[C@H]1C(O)O[C@H](CO)[C@@H](O[C@@H]2O[C@H](CO)[C@H](O)[C@H](O)[C@H]2O)[C@@H]1O (stereo partly drawn) [LacNAc, N-acetyllactosamine] | ~100000
2 | 22 ± 2 | 740 ± 9 | O=C(NCc1cn([C@H]2[C@@H](O)[C@@H](CO)O[C@@H](S[C@@H]3O[C@H](CO)[C@H](O)[C@H](n4cc(-c5cccc(F)c5)nn4)[C@H]3O)[C@@H]2O)nn1)c1ccc2c(c1)C(=O)OC21c2ccc(O)cc2Oc2cc(O)ccc21 [fluorescent probe, 3-deoxy-3-[4-(fluorescein-5-yl-carbonylaminomethyl)-1H-1,2,3-triazol-1-yl]-β-D-galactopyranosyl-3-deoxy-3-[4-(3-fluorophenyl)-1H-1,2,3-triazol-1-yl]-1-thio-β-D-galactopyranoside] | –

— paper PMC12670426 (Journal of Medicinal Chemistry, 2025)
